# US20180057467A1, “NOVEL TRIAZOLE DERIVATIVES” (BAYER CROPSCIENCE AKTIENGESELLSCHAFT, priority 2015, published 2018)
# Marks after values point to notes of the source that are not given here.
# Experiment: LogP by HPLC on reversed phase columns (EEC directive 79/831 Annex V.A8)
# Format: physicochemical
# Settings: not given
# Protocol: [table] If more than one Log P value is available within the same method, all the values are given and separated by “+”. […] Lambda-max-values were determined using UV-spectra from 200 nm to 400 nm and the peak values of the chromatographic signals.
row,LogP,Compound
1,3.10^[b],"OC(Cn1cncn1)(c1ccc(F)cc1F)C1(Oc2c(F)cc(F)cc2F)CC1 (stereo not drawn) [Example I-02, 1-(2,4-difluorophenyl)-2-(1H-1,2,4-triazol-1-yl)-1-[1-(2,4,6-trifluorophenoxy)cyclopropyl]ethanol]"
2,3.29^[b],"CC(=O)OC(Cn1cncn1)(c1ccc(F)cc1F)C1(Oc2c(F)cc(F)cc2F)CC1 (stereo not drawn) [Example I-04, 1-(2,4-difluorophenyl)-2-(1H-1,2,4-triazol-1-yl)-1-[1-(2,4,6-trifluorophenoxy)cyclopropyl]ethyl acetate]"

# Same assay, conditions: LogP
row,chromatographic logP,Compound
1,3.11,"OC(Cn1cncn1)(c1ccc(F)cc1F)C1(Oc2c(F)cc(F)cc2F)CC1 (stereo not drawn) [Example I-02, 1-(2,4-difluorophenyl)-2-(1H-1,2,4-triazol-1-yl)-1-[1-(2,4,6-trifluorophenoxy)cyclopropyl]ethanol]"
2,3.32,"CC(=O)OC(Cn1cncn1)(c1ccc(F)cc1F)C1(Oc2c(F)cc(F)cc2F)CC1 (stereo not drawn) [Example I-04, 1-(2,4-difluorophenyl)-2-(1H-1,2,4-triazol-1-yl)-1-[1-(2,4,6-trifluorophenoxy)cyclopropyl]ethyl acetate]"

# Same assay, conditions: method [a]: LC-UV, acidic range, 0.1% formic acid in water and acetonitrile as eluent
row,LogP,Compound
1,5.62^[a],Fc1ccc(C2(C3(Oc4c(Cl)cc(OC(F)(F)F)cc4Cl)CC3)CO2)c(F)c1 (racemic) [Example V-05]
2,5.03^[a],O=C(c1ccc(F)cc1F)C1(Oc2c(Cl)ccc(Cl)c2Cl)CC1 [IV-8]
3,4.35^[a],Fc1ccc(C2(C3(Oc4c(F)ccc(F)c4Cl)CC3)CO2)c(F)c1 (stereo not drawn) [Example V-19]
4,4.27^[a],O=C(c1ccc(F)cc1F)C1(Oc2c(F)ccc(Cl)c2F)CC1 [IV-9]
5,5.72^[a],Fc1ccc(C2(C3(Oc4c(Cl)cc(Br)cc4Cl)CC3)CO2)c(F)c1 (racemic) [Example V-08]
6,4.49^[a],O=C(c1ccc(Cl)cc1F)C1(Oc2c(F)cc(F)cc2F)CC1 [IV-15]
7,4.25^[a],O=C(c1ccc(F)cc1F)C1(Oc2c(F)ccc(F)c2Cl)CC1 [IV-20]
8,5.25^[a],O=C(c1ccc(F)cc1F)C1(Oc2c(Cl)cc(C(F)(F)F)cc2Cl)CC1 [IV-11]
9,4.54^[a],O=C(c1ccc(F)cc1F)C1(Oc2cc(F)c(Br)c(F)c2)CC1 [IV-19]
10,5.34^[a],O=C(c1ccc(F)cc1F)C1(Oc2c(Cl)cc(Cl)cc2Cl)CC1 [IV-4]
11,5.27^[a],Fc1ccc(C2(C3(Oc4c(Cl)ccc(Cl)c4Cl)CC3)CO2)c(F)c1 (racemic) [Example V-09]
12,5.03^[a],O=C(c1ccc(Cl)cc1F)C1(Oc2c(F)cc(Cl)cc2F)CC1 [IV-16]
13,4.15^[a],N#Cc1cc(Cl)c(OC2(C(=O)c3ccc(F)cc3F)CC2)c(Cl)c1 [IV-14]
14,4.01^[a],O=C(c1ccc(F)cc1F)C1(Oc2ccc(F)c(F)c2F)CC1 [IV-17]
15,5.05^[a],O=C(c1ccc(Cl)cc1F)C1(Oc2c(F)cc(Br)cc2F)CC1 [IV-21]
16,5.01^[a],O=C(c1ccc(F)cc1F)C1(Oc2c(Cl)cc(Br)cc2Cl)CC1 [IV-7]
17,4.20^[a],O=C(c1ccc(F)cc1F)C1(Oc2cc(F)c(F)c(F)c2)CC1 [IV-10]
18,4.86,Fc1ccc(C2(C3(Oc4c(F)cc(Br)cc4F)CC3)CO2)c(F)c1 (racemic) [Example V-03]
19,5.51^[a],Fc1ccc(C2(C3(Oc4c(Cl)cc(C(F)(F)F)cc4Cl)CC3)CO2)c(F)c1 (racemic) [Example V-11]

row,LogP,Compound
1,4.28^[a],Fc1ccc(C2(C3(Oc4ccc(F)c(F)c4F)CC3)CO2)c(F)c1 (stereo not drawn) [Example V-16]
2,4.86^[a],Fc1ccc(C2(C3(Oc4cc(F)c(Br)c(F)c4)CC3)CO2)c(F)c1 (stereo not drawn) [Example V-18]
3,3.94^[a],O=C(c1ccc(F)cc1F)C1(Oc2cc(F)c(F)cc2F)CC1 [IV-18]
4,4.59^[a],Fc1ccc(C2(C3(Oc4c(F)cc(Cl)cc4F)CC3)CO2)c(F)c1 (racemic) [Example V-02]
5,4.20^[a],Fc1ccc(C2(C3(Oc4c(F)ccc(F)c4F)CC3)CO2)c(F)c1 (racemic) [Example V-10]
6,5.85^[a],O=C(c1ccc(F)cc1F)C1(Oc2c(Cl)cc(SC(F)(F)F)cc2Cl)CC1 [IV-13]
7,4.64^[a],Fc1ccc(C2(C3(Oc4cc(F)c(F)c(F)c4)CC3)CO2)c(F)c1 (racemic) [Example V-04]
8,4.54^[a],O=C(c1ccc(F)cc1F)C1(Oc2c(F)cc(Br)cc2F)CC1 [IV-3]
9,4.10^[a],Fc1ccc(C2(C3(Oc4cc(F)c(F)cc4F)CC3)CO2)c(F)c1 (stereo not drawn) [Example V-17]
10,5.56^[a],Fc1ccc(C2(C3(Oc4c(Cl)cc(Cl)cc4Cl)CC3)CO2)c(F)c1 (racemic) [Example V-07]
11,4.76^[a],O=C(c1ccc(F)cc1F)C1(Oc2c(Cl)cc(F)cc2Cl)CC1 [IV-5]
12,5.23^[a],Fc1cc(Cl)ccc1C1(C2(Oc3c(F)cc(Cl)cc3F)CC2)CO1 (stereo not drawn) [Example V-14]
13,4.65^[a],Fc1ccc(C2(C3(Oc4c(F)ccc(Cl)c4F)CC3)CO2)c(F)c1 (racemic) [Example V-06]
14,6.07^[a],Fc1ccc(C2(C3(Oc4c(Cl)cc(SC(F)(F)F)cc4Cl)CC3)CO2)c(F)c1 (stereo not drawn) [Example V-13]
15,4.72^[a],Fc1cc(F)c(OC2(C3(c4ccc(Cl)cc4F)CO3)CC2)c(F)c1 (stereo not drawn) [Example V-15]
16,3.99^[a],O=C(c1ccc(F)cc1F)C1(Oc2c(F)ccc(F)c2F)CC1 [IV-6]
17,4.98^[a],Fc1ccc(C2(C3(Oc4c(Cl)cc(F)cc4Cl)CC3)CO2)c(F)c1 (stereo not drawn) [Example V-12]
18,5.39^[a],O=C(c1ccc(F)cc1F)C1(Oc2c(Cl)cc(OC(F)(F)F)cc2Cl)CC1 [IV-12]
19,4.44^[a],O=C(c1ccc(F)cc1F)C1(Oc2c(F)cc(Cl)cc2F)CC1 [IV-2]

# Further lines, the compound ahead of its results:
row,Compound,LogP
1,COC(Cn1cncn1)(c1ccc(F)cc1F)C1(Oc2c(F)ccc(F)c2F)CC1 (racemic) [Example I-14],3.50^[a]
2,"OC(Cn1cncn1)(c1ccc(F)cc1F)C1(Oc2c(F)cc(Cl)cc2F)CC1 (single isomer, unassigned) [Example I-20]",3.55^[a]
3,OC(Cn1cncn1)(c1ccc(F)cc1F)C1(Oc2ccc(F)c(F)c2F)CC1 (racemic) [Example I-27],3.30^[a]
4,"OC(Cn1cncn1)(c1ccc(F)cc1F)C1(Oc2c(F)cc(Br)cc2F)CC1 (single isomer, unassigned) [Example I-21]",3.63^[a]
5,OC(Cn1cncn1)(c1ccc(F)cc1F)C1(Oc2c(Cl)cc(C(F)(F)F)cc2Cl)CC1 (racemic) [Example I-10],4.46^[a]
6,OC(Cn1cncn1)(c1ccc(Cl)cc1F)C1(Oc2c(F)cc(F)cc2F)CC1 (racemic) [Example I-24],3.51^[a]
7,OC(Cn1cncn1)(c1ccc(F)cc1F)C1(Oc2c(Cl)cc(F)cc2Cl)CC1 (racemic) [Example I-16],3.94^[a]
8,OC(Cn1cncn1)(c1ccc(F)cc1F)C1(Oc2c(F)ccc(F)c2F)CC1 (racemic) [Example I-13],3.14^[a]
9,COC(Cn1cncn1)(c1ccc(F)cc1F)C1(Oc2c(Cl)cc(OC(F)(F)F)cc2Cl)CC1 (racemic) [Example I-18],4.87^[a]
10,OC(Cn1cncn1)(c1ccc(F)cc1F)C1(Oc2cc(F)c(F)cc2F)CC1 (racemic) [Example I-28],3.17^[a]
11,OC(Cn1cncn1)(c1ccc(F)cc1F)C1(Oc2c(F)ccc(F)c2Cl)CC1 (racemic) [Example I-29],3.42^[a]
12,OC(Cn1cncn1)(c1ccc(Cl)cc1F)C1(Oc2c(F)cc(Cl)cc2F)CC1 (racemic) [Example I-23],4.01^[a]
13,COC(Cn1cncn1)(c1ccc(F)cc1F)C1(Oc2c(Cl)ccc(Cl)c2Cl)CC1 (racemic) [Example I-15],4.46^[a]
14,OC(Cn1cncn1)(c1ccc(F)cc1F)C1(Oc2c(Cl)cc(OC(F)(F)F)cc2Cl)CC1 (racemic) [Example I-09],4.62^[a]
15,OC(Cn1cncn1)(c1ccc(F)cc1F)C1(Oc2c(Cl)cc(Cl)cc2Cl)CC1 (racemic) [Example I-07],4.49^[a]
16,"OC(Cn1cncn1)(c1ccc(F)cc1F)C1(Oc2c(F)cc(Cl)cc2F)CC1 (single isomer, unassigned) [Example I-19]",3.55^[a]
17,OC(Cn1cncn1)(c1ccc(F)cc1F)C1(Oc2cc(F)c(Br)c(F)c2)CC1 (racemic) [Example I-30],3.85^[a]
18,OC(Cn1cncn1)(c1ccc(F)cc1F)C1(Oc2cc(F)c(F)c(F)c2)CC1 (racemic) [Example I-05],3.44^[a]
19,COC(Cn1cncn1)(c1ccc(Cl)cc1F)C1(Oc2c(F)cc(Cl)cc2F)CC1 (racemic) [Example I-25],4.41^[a]
20,OC(Cn1cncn1)(c1ccc(F)cc1F)C1(Oc2c(Cl)cc(Br)cc2Cl)CC1 (racemic) [Example I-12],4.62^[a]
21,COC(Cn1cncn1)(c1ccc(Cl)cc1F)C1(Oc2c(F)cc(F)cc2F)CC1 (racemic) [Example I-26],3.97^[a]
22,OC(Cn1cncn1)(c1ccc(F)cc1F)C1(Oc2c(F)ccc(Cl)c2F)CC1 (racemic) [Example I-08],3.39^[a]
23,OC(Cn1cncn1)(c1ccc(F)cc1F)C1(Oc2c(Cl)cc(SC(F)(F)F)cc2Cl)CC1 (racemic) [Example I-11],4.97^[a]
24,"OC(Cn1cncn1)(c1ccc(F)cc1F)C1(Oc2c(F)cc(Br)cc2F)CC1 (single isomer, unassigned) [Example I-22]",3.63^[a]
25,COC(Cn1cncn1)(c1ccc(F)cc1F)C1(Oc2c(F)ccc(Cl)c2F)CC1 (racemic) [Example I-17],3.85^[a]
26,OC(Cn1cncn1)(c1ccc(F)cc1F)C1(Oc2c(Cl)ccc(Cl)c2Cl)CC1 (racemic) [Example I-06],4.19^[a]

# Same assay, conditions: method [b]: LC-UV, neutral range, 0.001 molar ammonium acetate solution in water and acetonitrile as eluent
row,LogP,Compound
1,4.87,Fc1ccc(C2(C3(Oc4c(F)cc(Br)cc4F)CC3)CO2)c(F)c1 (racemic) [Example V-03]

# Same assay, conditions: reversed phase HPLC column, method [a]: LC-UV, acidic range, 0.1% formic acid in water and acetonitrile as eluent; read-out: LogP
row,chromatographic logP,Compound
1,3.96,"O=C(c1ccc(F)cc1F)C1(Oc2c(F)cc(F)cc2F)CC1 [IV-1, (2,4-difluorophenyl)[1-(2,4,6-trifluorophenoxy)cyclopropyl]methanone]"
2,4.26,"Fc1ccc(C2(C3(Oc4c(F)cc(F)cc4F)CC3)CO2)c(F)c1 (stereo not drawn) [Example V-01, 2-(2,4-difluorophenyl)-2-[1-(2,4,6-trifluorophenoxy)cyclopropyl]oxirane]"

# Same assay, conditions: reversed phase HPLC column, method [b]: LC-UV, neutral range, 0.001 molar ammonium acetate solution in water and acetonitrile as eluent; read-out: LogP
row,chromatographic logP,Compound
1,4.26,"Fc1ccc(C2(C3(Oc4c(F)cc(F)cc4F)CC3)CO2)c(F)c1 (stereo not drawn) [Example V-01, 2-(2,4-difluorophenyl)-2-[1-(2,4,6-trifluorophenoxy)cyclopropyl]oxirane]"
